Values quoted from earlier work, collected in patent publication US12433860B2, “Treatment of multiple sclerosis comprising DHODH inhibitors” (Immunic AG, priority 2021, dated 2025).

System: patients with active rheumatoid arthritis
Conditions: 35 mg once-daily for 13 weeks; cited from earlier work

COc1cccc(-c2ccc(NC(=O)C3=C(C(=O)O)CCC3)c(F)c2)c1 [vidofludimus, 2-((3-fluoro-3′-methoxy-[1,1′-biphenyl]-4-yl)carbamoyl)cyclopent-1-enecarboxylic acid]
diarrhoea, alopecia, neutropenia or liver enzyme elevations: no notable increases | safety profile as compared to placebo: overall similar safety profile as compared to placebo
